In assay [1] the target is Dual specificity protein phosphatase 3 (Homo sapiens, UniProt P51452). The assay can be described thus: SAR VHR1 Fluorescent Assay for In Vitro dose response studies Set 3. [Related pubchem assays (depositor defined):AID1654, AID1661, AID1878]. It counts as functional.
In assay [2] the test system is Vero. The assay can be described thus: cells. It counts as functional, cell-based. Conditions: Chlorocebus sabaeus.
Assay [3] is described as follows: HEp-2 cell cytotoxicity, dose response, cytotoxicity control for RSV inhibitor project, HTS (AID 2410). To be noted: human respiratory syncytial virus. The assay is classed as functional.
For assay [4], the target named is T1, Corticotropin-releasing factor receptor 2/Corticotropin-releasing factor-binding protein (Homo sapiens, UniProt P24387+Q13324).
T1 sequence (Q13324 whole entry): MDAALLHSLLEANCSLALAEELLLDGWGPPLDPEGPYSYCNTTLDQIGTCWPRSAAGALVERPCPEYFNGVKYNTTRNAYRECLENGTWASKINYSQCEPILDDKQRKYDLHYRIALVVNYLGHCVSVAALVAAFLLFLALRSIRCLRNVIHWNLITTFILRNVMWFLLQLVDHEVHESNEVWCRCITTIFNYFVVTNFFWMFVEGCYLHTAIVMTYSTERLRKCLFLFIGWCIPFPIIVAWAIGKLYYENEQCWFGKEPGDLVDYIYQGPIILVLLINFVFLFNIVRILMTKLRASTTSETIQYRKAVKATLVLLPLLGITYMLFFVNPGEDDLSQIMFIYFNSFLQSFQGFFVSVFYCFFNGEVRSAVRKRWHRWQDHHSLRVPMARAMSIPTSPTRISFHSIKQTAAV
T1 sequence (P24387 whole entry): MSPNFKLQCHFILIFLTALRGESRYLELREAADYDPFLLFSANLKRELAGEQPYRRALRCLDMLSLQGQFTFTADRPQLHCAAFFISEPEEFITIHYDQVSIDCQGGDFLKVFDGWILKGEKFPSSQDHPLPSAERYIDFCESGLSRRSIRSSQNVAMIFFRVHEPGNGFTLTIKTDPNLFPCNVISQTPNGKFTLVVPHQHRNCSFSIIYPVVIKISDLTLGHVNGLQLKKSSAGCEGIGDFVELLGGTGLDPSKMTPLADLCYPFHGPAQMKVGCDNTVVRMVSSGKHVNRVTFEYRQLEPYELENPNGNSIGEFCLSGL
The assay can be described thus: Dose Response confirmation of uHTS hits for small molecule antagonists of the CRF-binding protein and CRF-R2 receptor complex. The assay is classed as functional. To be noted: read-out: IC50_Mean.

The target in assay [5] is Lysine-specific demethylase 4C (Homo sapiens, UniProt Q9H3R0). The assay can be described thus: GASC-1 (JMJD2C) histone demethylase inhibitors, dose response, biochemical, DELFIA europium, cherry-picked samples (AID 488835). The assay is classed as functional.
Chain of Lysine-specific demethylase 4C (Q9H3R0 whole entry): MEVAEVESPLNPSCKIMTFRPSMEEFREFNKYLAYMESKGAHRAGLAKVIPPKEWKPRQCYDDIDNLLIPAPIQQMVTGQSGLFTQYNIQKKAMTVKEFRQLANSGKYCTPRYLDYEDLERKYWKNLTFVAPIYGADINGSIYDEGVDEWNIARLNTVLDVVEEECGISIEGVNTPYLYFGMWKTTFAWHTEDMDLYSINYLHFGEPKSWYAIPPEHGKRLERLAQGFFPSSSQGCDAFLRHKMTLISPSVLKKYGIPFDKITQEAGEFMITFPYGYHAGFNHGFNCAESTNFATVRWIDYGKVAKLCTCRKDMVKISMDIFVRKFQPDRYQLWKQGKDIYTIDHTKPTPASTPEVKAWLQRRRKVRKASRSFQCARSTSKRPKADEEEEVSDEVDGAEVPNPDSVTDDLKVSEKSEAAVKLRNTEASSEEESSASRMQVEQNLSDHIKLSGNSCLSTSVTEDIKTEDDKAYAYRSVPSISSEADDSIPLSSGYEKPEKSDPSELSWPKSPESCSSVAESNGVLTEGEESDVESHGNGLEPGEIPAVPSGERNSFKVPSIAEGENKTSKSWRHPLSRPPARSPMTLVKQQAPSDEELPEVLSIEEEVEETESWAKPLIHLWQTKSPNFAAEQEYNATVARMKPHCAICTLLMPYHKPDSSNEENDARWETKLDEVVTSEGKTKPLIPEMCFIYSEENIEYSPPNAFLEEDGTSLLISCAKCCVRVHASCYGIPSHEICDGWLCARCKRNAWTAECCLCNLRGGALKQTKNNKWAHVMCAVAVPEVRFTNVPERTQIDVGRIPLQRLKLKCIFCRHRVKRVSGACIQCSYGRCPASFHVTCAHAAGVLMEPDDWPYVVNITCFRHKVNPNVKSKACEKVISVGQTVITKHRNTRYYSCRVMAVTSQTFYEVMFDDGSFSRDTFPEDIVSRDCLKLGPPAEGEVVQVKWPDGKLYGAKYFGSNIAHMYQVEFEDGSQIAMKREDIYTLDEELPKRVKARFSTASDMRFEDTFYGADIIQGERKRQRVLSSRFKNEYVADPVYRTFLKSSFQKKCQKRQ
Assay [6] addresses Lysine-specific demethylase 4A (Homo sapiens, UniProt O75164). In words: JMJD2A histone demethylase inhibitors, dose response, selectivity assay for GASC-1 inhibitor project, biochemical, DELFIA europium, cherry-picked samples (AID 488840).
Assay [7] has as its target NAD-dependent protein deacylase sirtuin-5, mitochondrial (Homo sapiens, UniProt Q9NXA8). In words: SIRT5 desuccinylase inhibitors, dose response, biochemical, fluorescence imaging, cherry-pick, set 5 (AID 720591).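 Further: desuccinylation of succinyl peptide AMC substrate read as fluorescence after trypsin release; potency of inhibitors that lower fluorescence and may act on trypsin instead.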
In assay [8] the target is T1, Corticotropin-releasing factor receptor 2/Corticotropin-releasing factor-binding protein. In words: activators of CRF receptor 2 with binding protein – uHTS hits, confirmation (AID 602473). The assay is classed as functional. Conditions: read-out: EC50_Mean.
In assay [9] the test system is Vero. In words: Vero cell cytotoxicity, cytotoxicity control for flavivirus capping enzyme inhibitors (AID 588742). It counts as functional. To be noted: Chlorocebus sabaeus.
A further assay deals with Genome polyprotein (dengue virus type 2, UniProt P29990). In words: Dengue-2 NS5 methyltransferase inhibitors, primary screen, biochemical, confirmation dose response (AID 588689). The assay is classed as functional.
Chain of Genome polyprotein (P29990 2492-3391 limits assumed): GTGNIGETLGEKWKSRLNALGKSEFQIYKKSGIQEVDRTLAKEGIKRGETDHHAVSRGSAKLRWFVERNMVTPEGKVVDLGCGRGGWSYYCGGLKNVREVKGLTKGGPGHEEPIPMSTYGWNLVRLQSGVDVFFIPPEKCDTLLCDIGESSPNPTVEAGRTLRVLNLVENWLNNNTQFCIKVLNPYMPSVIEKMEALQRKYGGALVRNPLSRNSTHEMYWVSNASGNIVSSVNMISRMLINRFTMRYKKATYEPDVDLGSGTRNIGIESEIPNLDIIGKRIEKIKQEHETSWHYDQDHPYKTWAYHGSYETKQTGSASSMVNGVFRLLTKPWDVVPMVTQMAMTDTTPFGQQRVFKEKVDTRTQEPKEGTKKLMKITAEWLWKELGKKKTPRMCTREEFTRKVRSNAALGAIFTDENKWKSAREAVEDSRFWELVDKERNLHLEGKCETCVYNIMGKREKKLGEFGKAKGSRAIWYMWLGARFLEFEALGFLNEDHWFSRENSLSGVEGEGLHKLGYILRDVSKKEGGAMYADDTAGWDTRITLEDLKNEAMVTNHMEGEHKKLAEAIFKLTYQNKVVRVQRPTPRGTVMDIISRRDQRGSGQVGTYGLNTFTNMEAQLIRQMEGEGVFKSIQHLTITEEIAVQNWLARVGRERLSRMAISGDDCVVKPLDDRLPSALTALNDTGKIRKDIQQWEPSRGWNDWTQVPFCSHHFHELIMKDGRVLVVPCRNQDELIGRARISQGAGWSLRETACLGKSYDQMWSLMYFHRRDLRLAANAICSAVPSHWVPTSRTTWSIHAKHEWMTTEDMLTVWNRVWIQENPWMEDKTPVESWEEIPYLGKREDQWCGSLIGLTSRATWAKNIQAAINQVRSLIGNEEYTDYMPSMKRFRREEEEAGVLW
Assay [10] has as its target Nucleotide-binding oligomerization domain-containing protein 2 (Homo sapiens, UniProt Q9HC29). In words: NOD2 signaling inhibitors, cell-based, luminescence, uHTS, HEK293 (AID 1566). The assay is classed as functional.
Assay [11] deals with HEK293. In words: NOD2 signaling inhibitors in MDP-stimulated cells, cell-based, uHTS, luminescence (AID 2001). The assay is classed as functional. Conditions: Homo sapiens.
The test system of assay [12] is HEK293. The assay can be described thus: NOD1 signaling inhibitors, primary screen, cell-based, luminescence, uHTS (AID 1578). The assay is classed as functional. To be noted: Homo sapiens.
The test system of assay [13] is HEK293. In words: cells. It counts as functional, cell-based. Conditions: Homo sapiens.
The next assay concerns Jurkat. The assay can be described thus: SAR Analysis of small molecule inhibitors of T-cell specific antigen receptor-induced NF-kB activation in a Jurkat cell line using a luminescence assay - Set 2. [Related pubchem assays (depositor defined):AID435003, AID435012, AID465]. Conditions: Homo sapiens. It counts as functional, cell-based.
For assay [14], the target named is T2, Microphthalmia-associated transcription factor (Homo sapiens, UniProt O75030).
T2 sequence (O75030 whole entry): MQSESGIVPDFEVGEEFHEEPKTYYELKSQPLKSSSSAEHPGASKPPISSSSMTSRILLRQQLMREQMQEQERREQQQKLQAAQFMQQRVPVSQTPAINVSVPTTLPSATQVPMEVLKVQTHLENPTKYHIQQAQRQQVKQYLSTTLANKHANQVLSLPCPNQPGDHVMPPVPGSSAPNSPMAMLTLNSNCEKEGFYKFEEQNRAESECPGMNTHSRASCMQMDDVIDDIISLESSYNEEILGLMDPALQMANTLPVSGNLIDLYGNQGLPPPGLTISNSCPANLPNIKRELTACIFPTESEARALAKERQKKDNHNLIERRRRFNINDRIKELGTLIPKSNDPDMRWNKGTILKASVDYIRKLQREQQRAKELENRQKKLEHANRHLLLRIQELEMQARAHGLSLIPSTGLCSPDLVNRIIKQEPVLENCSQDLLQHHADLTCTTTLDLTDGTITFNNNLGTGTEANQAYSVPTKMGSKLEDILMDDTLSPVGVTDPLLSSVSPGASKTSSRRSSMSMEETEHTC
The assay can be described thus: TRPM1 promoter luciferase signal decrease, dose response, MITF inhibitor project, cell-based, SK-MEL-5, cherry-picked, set 3 (AID 493073).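 Further: SK-MEL-5 melanoma cells with luciferase driven by the MITF target TRPM1 promoter.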 The assay is classed as functional.

Assay [15] has as its system HEK293. In words: SAR Analysis of small molecule inhibitors of T-cell specific antigen receptor-induced NF-kB activation in a HEK-293T cell line using a luminescence assay - Set 2. [Related pubchem assays (depositor defined):AID435003, AID435012, AID489026]. To be noted: Homo sapiens. The assay is classed as functional, cell-based.
The test system of assay [16] is HEK293. The assay can be described thus: cells. The assay is classed as functional, cell-based. To be noted: Homo sapiens. This is another data set of the same source.
In assay [17] the test system is HEK293. The assay can be described thus: cells. It counts as functional, cell-based. Conditions: Homo sapiens. This is another data set of the same source.
In assay [18] the test system is HEK293. The assay can be described thus: cytotoxicity in HEK293T NF-kB-Luc cells, SAR follow-up, cytotoxicity control for NF-kB activator project, cell-based, resazurin fluorescence (AID 493251). It counts as functional. Conditions: Homo sapiens. A general note: The colour change of resazurin is a common sign of viable cells or microbes.
For assay [19], the system named is A-375. The assay can be described thus: MITF: Counter assay: A375 proliferation Measured in Cell-Based System Using Plate Reader - 2084-03_Inhibitor_Dose_DryPowder_Activity. [Related pubchem assays (depositor defined):AID488944]. It counts as functional. Conditions: Homo sapiens.
The subject of assay [20] is A-375. In words: A375 melanoma cell viability reduction, dose response, counter-screen for MITF modulator project, cherry-pick samples, set 2 (AID 540335). The assay is classed as functional, cell-based. Conditions: Homo sapiens.
Assay [21] deals with Delta-type opioid receptor (Homo sapiens, UniProt P41143). The assay can be described thus: Counterscreen for agonists of heterodimerization of the mu 1 (OPRM1) and delta 1 (OPRD1) opioid receptors: Luminescence-based cell-based high throughput dose response assay to identify agonists of OPRD1 homodimerization. [Related pubchem assays (depositor defined):AID504326, AID504355, AID504692, AID504904, AID504905]. The assay is classed as functional.

The subject of assay [22] is BJ. In words: cytotoxicity toward BJ-TERT fibroblasts, dose response, cell-based, RAS-independent, luminescence (AID 1933). It counts as functional. To be noted: Homo sapiens.
For the next assay, the target named is Mu-type opioid receptor (Homo sapiens, UniProt P35372). In words: Counterscreen for agonists of heterodimerization of the mu 1 (OPRM1) and delta 1 (OPRD1) opioid receptors: Luminescence-based cell-based high throughput dose response assay to identify agonists of OPRM1 homodimerization. The assay is classed as functional.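 Further: U2OS cells expressing OPRM1 and beta-arrestin as split beta-galactosidase partners.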
Chain of Mu-type opioid receptor (P35372 whole entry): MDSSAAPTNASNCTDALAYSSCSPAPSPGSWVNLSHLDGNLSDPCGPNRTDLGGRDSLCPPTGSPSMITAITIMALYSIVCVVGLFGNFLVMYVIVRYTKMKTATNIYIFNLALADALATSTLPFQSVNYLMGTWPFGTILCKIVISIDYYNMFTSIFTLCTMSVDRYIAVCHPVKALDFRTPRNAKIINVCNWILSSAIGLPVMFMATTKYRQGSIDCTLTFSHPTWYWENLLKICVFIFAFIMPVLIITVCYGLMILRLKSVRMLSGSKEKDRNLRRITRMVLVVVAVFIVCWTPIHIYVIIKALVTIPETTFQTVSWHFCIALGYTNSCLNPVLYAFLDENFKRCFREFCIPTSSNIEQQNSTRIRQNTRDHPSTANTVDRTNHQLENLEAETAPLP
Assay [23] concerns BJ. The assay can be described thus: cells. The assay is classed as functional, cell-based. Conditions: Homo sapiens.
The target in assay [24] is Luciferin 4-monooxygenase (Photinus pyralis, UniProt P08659). In words: firefly luciferase enzyme inhibitors, dose response, biochemical, luminescence (AID 1891).
Chain of Luciferin 4-monooxygenase (P08659 whole entry): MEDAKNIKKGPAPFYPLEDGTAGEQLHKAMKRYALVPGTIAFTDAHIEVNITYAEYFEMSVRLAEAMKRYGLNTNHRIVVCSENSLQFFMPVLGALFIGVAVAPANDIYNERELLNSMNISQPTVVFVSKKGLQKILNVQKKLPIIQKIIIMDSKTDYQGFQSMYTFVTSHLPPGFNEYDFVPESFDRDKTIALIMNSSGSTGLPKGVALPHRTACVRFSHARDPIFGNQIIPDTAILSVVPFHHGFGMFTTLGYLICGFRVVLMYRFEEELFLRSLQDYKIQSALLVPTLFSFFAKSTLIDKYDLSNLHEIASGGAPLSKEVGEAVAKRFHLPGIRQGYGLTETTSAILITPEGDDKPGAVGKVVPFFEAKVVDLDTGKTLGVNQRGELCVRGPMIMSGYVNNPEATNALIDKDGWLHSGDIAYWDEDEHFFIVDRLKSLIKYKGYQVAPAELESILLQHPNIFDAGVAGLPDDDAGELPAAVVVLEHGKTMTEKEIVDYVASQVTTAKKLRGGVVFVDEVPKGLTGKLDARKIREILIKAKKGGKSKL
The test system of assay [25] is BJ. In words: cytotoxicity toward BJ-TERT-LT-ST fibroblasts, dose response, cell-based, RAS-independent, luminescence (AID 1935).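 Further: BJ fibroblasts immortalized with TERT plus LT and ST oncogenes.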 The assay is classed as functional. Conditions: Homo sapiens.
Assay [26] can be described thus: cytotoxicity toward DRD oncogenic fibroblasts, dose response, cell-based, non-viral oncogenic, luminescence (AID 1934). The assay is classed as functional. To be noted: Homo sapiens.
Assay [27] deals with BJ. In words: cytotoxicity toward Ras-transformed BJeLR fibroblasts, dose response, cell-based, alamar blue fluorescence, cherrypicked samples (AID 2631).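 Further: confirmatory dose-response assay in RAS-dependent BJ fibroblasts engineered with TERT, LT and ST, with cytotoxicity read by fluorescence.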 The assay is classed as functional. Conditions: Homo sapiens.
The nature of assay [28]: Luminescence Cell-Based Dose Confirmation HTS to Identify Inhibitors of Platelet Dense Granule Release. [Related pubchem assays: 1663 (Primary HTS), 1678 (Summary of Project)]. The assay is classed as functional.
Assay [29] deals with 5-hydroxytryptamine receptor 5A (Homo sapiens, UniProt P47898). In words: Counterscreen for agonists of OPRM1-OPRD1 heterodimerization: luminescence-based cell-based high throughput dose response assay to identify agonists of 5-hydroxytryptamine (serotonin) 5A receptor (HTR5A). [Related pubchem assays (depositor defined):AID504326, AID504355, AID504692, AID504904, AID504905]. It counts as functional. On the technique in general: Counterscreens check selectivity or assay interference.
Chain of 5-hydroxytryptamine receptor 5A (P47898 whole entry): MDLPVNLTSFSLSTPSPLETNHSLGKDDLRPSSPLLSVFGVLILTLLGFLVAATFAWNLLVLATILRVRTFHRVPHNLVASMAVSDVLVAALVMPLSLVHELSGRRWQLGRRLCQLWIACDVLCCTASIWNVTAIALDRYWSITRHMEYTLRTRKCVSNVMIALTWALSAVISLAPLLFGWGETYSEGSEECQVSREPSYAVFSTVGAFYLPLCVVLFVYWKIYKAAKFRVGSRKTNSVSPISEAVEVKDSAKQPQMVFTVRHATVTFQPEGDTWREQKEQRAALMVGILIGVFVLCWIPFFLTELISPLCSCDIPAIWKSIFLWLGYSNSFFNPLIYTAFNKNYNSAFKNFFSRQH

The source made the active and inactive calls.

Chain of Dual specificity protein phosphatase 3 (P51452 whole entry): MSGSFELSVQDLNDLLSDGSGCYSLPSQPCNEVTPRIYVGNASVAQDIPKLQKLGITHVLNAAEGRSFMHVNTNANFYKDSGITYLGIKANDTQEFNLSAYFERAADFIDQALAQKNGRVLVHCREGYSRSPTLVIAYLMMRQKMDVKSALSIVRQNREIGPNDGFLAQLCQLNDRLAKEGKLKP
Chain of Nucleotide-binding oligomerization domain-containing protein 2 (Q9HC29 whole entry, the tested form may be a part): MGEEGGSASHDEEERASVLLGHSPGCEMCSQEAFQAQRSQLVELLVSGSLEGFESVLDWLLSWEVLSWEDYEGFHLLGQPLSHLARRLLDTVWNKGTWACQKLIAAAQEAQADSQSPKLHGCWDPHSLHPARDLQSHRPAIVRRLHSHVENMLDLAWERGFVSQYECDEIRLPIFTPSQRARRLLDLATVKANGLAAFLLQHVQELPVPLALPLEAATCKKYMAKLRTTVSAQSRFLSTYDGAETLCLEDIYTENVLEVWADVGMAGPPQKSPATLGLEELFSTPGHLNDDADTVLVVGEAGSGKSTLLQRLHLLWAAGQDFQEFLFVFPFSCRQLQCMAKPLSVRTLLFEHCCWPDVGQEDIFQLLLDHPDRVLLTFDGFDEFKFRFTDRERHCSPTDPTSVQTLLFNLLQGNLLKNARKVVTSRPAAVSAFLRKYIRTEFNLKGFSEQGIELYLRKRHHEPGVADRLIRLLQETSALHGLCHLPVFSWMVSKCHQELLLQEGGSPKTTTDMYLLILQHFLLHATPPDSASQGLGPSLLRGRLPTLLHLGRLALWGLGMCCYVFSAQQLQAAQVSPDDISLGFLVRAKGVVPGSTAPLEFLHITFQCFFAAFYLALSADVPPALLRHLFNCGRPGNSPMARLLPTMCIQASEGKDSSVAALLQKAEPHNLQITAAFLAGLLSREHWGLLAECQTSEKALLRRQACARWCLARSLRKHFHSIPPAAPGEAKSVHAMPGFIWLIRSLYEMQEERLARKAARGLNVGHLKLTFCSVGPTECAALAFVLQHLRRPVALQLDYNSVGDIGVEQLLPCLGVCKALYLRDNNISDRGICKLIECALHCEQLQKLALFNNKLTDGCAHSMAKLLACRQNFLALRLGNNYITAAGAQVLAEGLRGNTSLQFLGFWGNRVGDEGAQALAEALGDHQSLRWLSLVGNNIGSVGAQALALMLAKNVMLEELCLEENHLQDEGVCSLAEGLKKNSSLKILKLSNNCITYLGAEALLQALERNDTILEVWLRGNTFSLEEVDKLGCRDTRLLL
Chain of NAD-dependent protein deacylase sirtuin-5, mitochondrial (Q9NXA8 whole entry): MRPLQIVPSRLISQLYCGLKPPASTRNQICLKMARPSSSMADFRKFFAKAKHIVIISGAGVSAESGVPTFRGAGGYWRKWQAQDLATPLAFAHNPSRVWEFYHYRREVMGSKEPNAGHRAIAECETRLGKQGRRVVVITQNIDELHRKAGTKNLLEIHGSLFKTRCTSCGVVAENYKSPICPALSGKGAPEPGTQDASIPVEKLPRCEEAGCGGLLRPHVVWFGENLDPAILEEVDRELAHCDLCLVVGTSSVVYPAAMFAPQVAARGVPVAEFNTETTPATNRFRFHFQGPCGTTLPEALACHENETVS

Regarding `COc1cccc2sc(NC(=O)c3ccccc3)nc12`, the IC50 in [1] is > 66 µM (inactive).
As for `CC(Sc1nnc(Nc2ccccc2)s1)C(=O)Nc1nc(-c2ccccc2)cs1` (configuration not stated), the IC50 in the assay with Vero [2] is > 25 µM (active). Also, in [3], the CC50 was > 50 µM (active).
As to `CCc1ccc([C@@H]2CC=C(C(=O)O)[C@H](c3ccc(C(C)(C)C)cc3)N2S(=O)(=O)c2ccc(C)cc2)cc1`, the IC50 in [4] was < 0.368 µM (active); at Genome polyprotein, 37 µM (active). The concentration at half-maximal activity (AC50) is 14.8 µM (active) in assay [5], 9.31 µM (active) in assay [6] and 13.5 µM (active) in assay [7]. Further, the EC50 in [8] was 27.8 µM (active). The CC50 with Vero [9] was > 40 µM (active).
Regarding `O=C(Nc1ccc2oc(-c3cccnc3)nc2c1)c1ccc([N+](=O)[O-])o1`, the EC50 was > 20 µM (inactive) in [10] and 7.26 µM (active) with HEK293 [12]. Also, the IC50 in the assay with HEK293 [11] is 7.39 µM (active); with HEK293 [13], 4.02 µM (active); with Jurkat it was 38.7 µM (inactive); with HEK293 [15], 51.5 µM (inactive); in the assay with HEK293 [16] it was > 20 µM (inactive); with HEK293 [17] it was > 20 µM (inactive). The IC50 in the assay with HEK293 [18] is > 80 µM (inactive). The half-maximal activity concentration (AC50) in assay [14] is 14.2 µM (active).
Take `O=C(NCCNc1ccccc1[N+](=O)[O-])c1cc(F)c(F)cc1Cl`: the AC50 in the assay with A-375 [19] and in the assay with A-375 [20] was > 11 µM (active) in each case.
Turning to `Cc1occc1C(=O)N/N=C/c1ccc(-c2ccccc2)cc1`, the EC50 in [21] was > 92.4 µM (inactive); in the assay on BJ [22], 4.43 µM (active); on Mu-type opioid receptor, > 92.4 µM (inactive); in the assay with BJ [23], 3.14 µM (active); in assay [24], 0.151 µM (active); in the assay with BJ [25] it was 10.3 µM (active). The EC50 in assay [26] was 3.41 µM (active); in the assay on BJ [27], > 133 µM (inactive); in assay [28], 0.897 µM (active); in assay [29] it was > 92.4 µM (inactive).

For orientation: CC50 means the concentration at which the toxic effect on the cells reaches its halfway point. The term AC50 denotes the concentration giving half of the maximal activity seen.
